In this test the target is T1, Wheat germ agglutinin (WGA).
T1 construct: gene WGA1; commercial native lectin from wheat germ (J-Oil Mills)
As to the kind of experiment: intrinsic tryptophan fluorescence titration, Hill plot. In kind it is binding, Triticum aestivum. To be noted: 0.65 μM WGA, 50 mM Tris-HCl, 1.25 M NaCl, 25 mM CaCl2, pH 7.5, 4 °C; excitation 295 nm, emission 348 nm (buffer as given for 10b, same procedure); read-out: K a / (×10^5 M^-1) (converted). An excerpt: intrinsic tryptophan fluorescence titration, Hill plot on Wheat germ agglutinin (WGA)

The results in this text go back to PMC9959589, “Use of a Longer Aglycon Moiety Bearing Sialyl α(2→3) Lactoside on the Glycopolymer for Lectin Evaluation” (Polymers, 2023).

For the compound `C=CC(=O)NCCOCCOCCOCCOCCOCCOCCOCCOCCO[C@@H]1O[C@H](CO)[C@@H](O[C@@H]2O[C@H](CO)[C@H](O)[C@H](O[C@]3(C(=O)O)C[C@H](O)[C@@H](NC(C)=O)[C@H]([C@H](O)[C@H](O)CO)O3)[C@H]2O)[C@H](O)[C@H]1O` [compound 9, 28-Oxo-3,6,9,12,15,18,21,24-octaoxa-27-azatriacont-29-en-1-yl (5-Acetamido-3,5-dideoxy-D̿ -glycero-α-D̿ -galacto-2-nonulopyranosyl)-(2→3)-O-(β-D̿ -galactopyranosyl)-(1→4)-β-D̿ -glucopyranoside], the Kd is 31.2 µM.
